# Assay results as given in US20230033195A1, “METHODS AND COMPOSITIONS FOR IMPROVING COGNITIVE FUNCTION” (THE JOHNS HOPKINS UNIVERSITY, priority 2011, published 2023).
# Legend:
# [1] = system: entorhinal cortex (EC) of aMCI subjects; test: fMRI activity during lure stimuli correctly identified as similar, entorhinal cortex; type: in vivo, human; conditions: 125 mg twice a day for two weeks
# Protocol: FIG. 9B depicts the average activity in the left entorhinal cortex of the same aMCI subjects with placebo treatment or levetiracetam treatment (125 mg twice a day for two weeks) during the presentation of lure stimuli that the subject correctly identified as "similar."
# A within-subjects trial of 8 weeks duration, involving 17 amnestic MCI (aMCI) subjects and 17 age-matched controls with a low dose treatment of levetiracetam is conducted. During the course of the study, each aMCI subject receives both drug and placebo treatments separately in two periods of two weeks each, with the order of treatments among different aMCI subjects counterbalanced (see FIG. 7). Age-matched control subjects treated with placebo serve as a further control. Cognitive testing and fMRI imaging data are obtained from the subjects after each two week period of drug/placebo treatment.
# Imaging data are obtained through high-resolution methods developed in the Stark laboratory. Data are collected on a Phillips 3 Tesla scanner (Eindhoven, The Netherlands) equipped with an 8-channel SENSE (Sensitivity Encoding) head coil, located at the F.M. Kirby Research Center for Functional Brain Imaging at the Kennedy Krieger Institute (Baltimore, MD). […]
# Group data are analyzed using a two-way Analysis of Variance (ANOVA) with trial types and group as fixed factors, and subject as a random factor nested within group. […]
# aMCI subjects = test: explicit 3-alternative forced choice task; type: in vivo, human; conditions: 125 mg twice a day for two weeks, vs placebo, p = 0.039
# Excerpt: Each bar represents the proportion of the subjects responses (old, similar, or new) when presented with a lure image.
# There are various tests known in the art for assessing cognitive function in humans, for example and without limitation, the clinical global impression of change scale (CIBIC-plus scale); the Mini Mental State Exam (MMSE); the Neuropsychiatric Inventory (NPI); the Clinical Dementia Rating Scale (CDR); the Cambridge Neuropsychological Test Automated Battery (CANTAB); the Sandoz Clinical Assessment-Geriatric (SCAG), the Buschke Selective Reminding Test (Buschke and Fuld, 1974); the Verbal Paired Associates subtest; the Logical Memory subtest; the Visual Reproduction subtest of the Wechsler Memory Scale-Revised (WMS-R) (Wechsler, 1997); or the Benton Visual Retention Test. See Folstein et al., J Psychiatric Res 12: 189-98, (1975); Robbins et al., Dementia 5: 266-81, (1994); Rey, L'examen clinique en psychologie, (1964); Kluger et al., J Geriatr Psychiatry Neurol 12:168-79, (1999); Marquis et al., 2002 and Masur et al., 1994. Another example of a cognitive test in humans is the explicit 3-alternative forced choice task. […]
# The activity of the subject's medial temporal lobe is measured by functional MRI during the subject's participation in an explicit 3-alternative forced choice task, where participants view novel, repeated and similar ("lure") stimuli. […]
smiles,measurement,setting,value
"CC[C@@H](C(N)=O)N1CCCC1=O [levetiracetam, (2S)-2-(2-oxopyrrolidin-1-yl) butanamide]",EC activity compared with placebo-treated control subjects,[1],statistically indistinguishable
same,"EC activity during memory judgments, vs placebo treatment",[1],increases EC activity
same,performance in the explicit 3-alternative forced choice task (similar vs old responses to lures),aMCI subjects,improves significantly
